Among the data in US7358250B2, “Pyrrolo[2,3-d]pyrimidines that modulate ACK1 activity” (Amgen Inc., priority 2004, dated 2008) are Ki and IC50 values, retold here.

Test [1] deals with T1, ACK1 (Homo sapiens, UniProt Q07912).
T1 construct: a fusion of an N-terminal (His)6 Tag with amino acids 117 to 489 of ACK1; (His)6 (N); made in house; host or cells: baculovirus infected Hi-5 insect cells
The test is described as follows: ACK1 Enzymatic Assay. Particulars: 5 μM ATP, ELISA phosphotyrosine readout. In kind it is biochemical. The procedure: IC50 values of inventive compounds may be assessed as follows. […] The substrate of for the reaction is ACK1 itself (autophosphorylation) and poly-Glutamic acid-Tyrosine (PGT (4:1), Sigma catalog #PO275). The PGT is coated to Nunc 96 well plates at 80 μg/mL overnight at 4° C. […] Test compounds are added in 10 μL DMSO, and the reaction is started by addition of 10 μL kinase in assay buffer. The reaction proceeds 2 h at room temperature. Next the plates are washed four times, and the level of tyrosine phosphorylation in a given well is quantified by standard ELISA assay utilizing a phosphotyrosine antibody (PY20, Pierce).
On the technique in general: In an ELISA, binding on a coated surface is turned into a signal by an enzyme label.

The test system of test [2] is C8 cells. The test is described as follows: ACK1 Cell Based Assay, test (C8) cell line. Particulars: 0.125% FCS, 20 to 24 h, cell viability (Cytotox One kit). The procedure: The ACK1 cell based assay is designed to find inhibitors of ACK1 kinase activity which would be prime candidates for the development of anticancer drugs. […] This dependency was confirmed utilizing ACK1 specific siRNAs.
For this assay, test (C8) and control (HeLa) cell lines are seeded in 96 well tissue culture plates (BD Falcon) at a density of 2 to 4×10^4 in DMEM/F12 (C8) or DMEM (HeLa) with 0.125% FCS in the presence of ACK1 inhibitors (final DMSO concentration is 0.5%, all tissue culture media are from Cellgro). After 20 to 24 h incubation at 37° C. and 5% CO2, cell viability is determined using the Cytotox One kit (Promega) according to the manufacturer's instructions.

Test [3] concerns the target T2, LCK (Homo sapiens, UniProt P06239).
T2 construct: 15 μL of LCK KD GST (225-509) for a final volume of 40 μL; GST
The experiment in a line: LCK-Homogeneous Time Resolved Fluorescent (HTRF) Kinase Assay. The test is classed as biochemical. Particulars: LCK KD GST (225-509). The method, then: The LCK HTRF assay begins with LCK in the presence of ATP phosphorylating the biotinylated peptide Gastrin. The reaction incubates for 90 min. To quench the assay detection reagents are added which both stop the reaction by diluting out the enzyme and chelating the metals due to the presence of EDTA. Once the detection reagents are added the assay incubates for 30 min to allow for equilibration of the detection reagents.
The final concentration of gastrin is 1.2 μM. The final concentration of ATP is 0.5 μM (Km app=[…]) and the final concentration of LCK is […]. Buffer conditions are as follows: 50 mM HEPES pH 7.5, 50 mM NaCl, 20 mM MgCl, 5 mM MnCl, 2 mM DTT, 0.05% BSA.
The assay is quenched and stopped with 160 μL of detection reagent. Detection reagents are as follows: Buffer made of 50 mM Tris, pH 7.5, 100 mM NaCl, 3 mM EDTA, 0.05% BSA, 0.1% Tween20. Added to this buffer prior to reading is Steptavidin allophycocyanin (SA-APC) at a final conc in the assay of 0.0004 mg/mL, and europilated anti-phosphotyrosine Ab (Eu-anti-PY) at a final conc of 0.025 nM.
The assay plate is read in either a Discovery or a RubyStar. The eu-anti-PY is excited at 320 nm and emits at 615 nm to excite the SA-APC which in turn emits at 655 nm. The ratio of SA-APC at 655 nm (excited due to close proximity to the Eu-anti-PY because of phosphorylation of the peptide) to free Eu-anti-PY at 615 nm will give substrate phosphorylation.
In general terms: Time-resolved FRET reads energy transfer from a long-lived donor to a nearby acceptor.

The term Ki denotes the equilibrium dissociation constant of an inhibitor or competing ligand from its target. A high value points to a looser hold on the target. The term IC50 denotes the concentration at which inhibition is half-maximal.

T1 sequence (Q07912 117-489): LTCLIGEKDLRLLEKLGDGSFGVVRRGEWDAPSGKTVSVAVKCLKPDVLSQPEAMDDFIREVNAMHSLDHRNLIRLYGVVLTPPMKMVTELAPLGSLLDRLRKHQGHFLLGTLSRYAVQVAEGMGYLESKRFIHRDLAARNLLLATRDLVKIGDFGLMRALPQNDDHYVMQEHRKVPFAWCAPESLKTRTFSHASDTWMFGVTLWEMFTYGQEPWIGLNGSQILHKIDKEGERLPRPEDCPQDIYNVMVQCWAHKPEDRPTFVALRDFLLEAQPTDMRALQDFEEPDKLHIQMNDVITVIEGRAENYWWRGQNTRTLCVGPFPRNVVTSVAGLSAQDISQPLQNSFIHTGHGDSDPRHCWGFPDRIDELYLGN
T2 sequence (P06239 225-509): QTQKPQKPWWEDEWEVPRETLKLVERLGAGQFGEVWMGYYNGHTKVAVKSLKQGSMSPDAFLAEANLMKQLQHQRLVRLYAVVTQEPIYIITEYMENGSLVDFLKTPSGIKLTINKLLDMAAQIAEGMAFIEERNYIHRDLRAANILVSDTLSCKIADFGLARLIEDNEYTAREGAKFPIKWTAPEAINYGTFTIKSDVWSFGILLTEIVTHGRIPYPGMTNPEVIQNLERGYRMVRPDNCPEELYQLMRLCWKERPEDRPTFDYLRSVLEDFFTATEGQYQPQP

As for `C=CCNS(=O)(=O)c1ccc(-c2[nH]c3ncnc(NCC4CCCO4)c3c2-c2ccccc2)cc1` (stereo not drawn) [Example 12, N-Allyl-4-{5-phenyl-4-[(tetrahydro-furan-2-ylmethyl)-amino]-7H-pyrrolo[2,3-d]pyrimidin-6-yl}-benzenesulfonamide], the Ki in test [1] and in test [3] was under 10 nM throughout. Also, the IC50 in test [2] is over 100 nM.
Consider `CC(C)(C)OC(=O)CNS(=O)(=O)c1ccc(-c2[nH]c3ncnc(NCC4CCCO4)c3c2-c2ccccc2)cc1` (stereo not drawn) [Example 13, (4-{5-Phenyl-4-[(tetrahydrofuran-2-ylmethyl)-amino]-7H-pyrrolo[2,3-d]pyrimidin-6-yl}-benzenesulfonylamino)-acetic acid tert-butyl ester], for which the Ki in test [1] and in test [3] was 10 to 100 nM each time. In test [2], the IC50 is over 100 nM.
Regarding `CCOC(=O)CN(CC(=O)OCC)S(=O)(=O)c1ccc(-c2[nH]c3ncnc(NCC4CCCO4)c3c2-c2ccccc2)cc1` (stereo not drawn) [Example 14, [Ethoxycarbonylmethyl-(4-{5-phenyl-4-[(tetrahydrofuran-2-ylmethyl)-amino]-7H-pyrrolo[2,3-d]pyrimidin-6-yl}-benzenesulfonyl)-amino]-acetic acid ethyl ester], the Ki in test [1] is under 10 nM; in test [3], 10 to 100 nM. This compound also came in with an IC50 in test [2] of over 100 nM.
For the compound `NS(=O)(=O)c1ccc(-c2[nH]c3ncnc(NC[C@@H]4CCCO4)c3c2-c2ccccc2)cc1` [Example 15, 4-{5-Phenyl-4-[(tetrahydrofuran-2-ylmethyl)-amino]-7H-pyrrolo[2,3-d]pyrimidin-6-yl}-benzenesulfonamide], the Ki was under 10 nM in test [1] and 10 to 100 nM in test [3]. Moreover, in test [2], the IC50 is over 100 nM.
For `O=S(=O)(NCC(O)CO)c1ccc(-c2[nH]c3ncnc(NC[C@@H]4CCCO4)c3c2-c2ccccc2)cc1` (stereo partly drawn) [Example 16, N-(2,3-Dihydroxy-propyl)-4-{5-phenyl-4-[(tetrahydrofuran-2-ylmethyl)-amino]-7H-pyrrolo[2,3-d]pyrimidin-6-yl}-benzenesulfonamide], in that order: under 10 nM, under 10 nM and over 100 nM.
For `O=C(O)CNS(=O)(=O)c1ccc(-c2[nH]c3ncnc(NC[C@@H]4CCCO4)c3c2-c2ccccc2)cc1` [Example 17], in that order: under 10 nM, 10 to 100 nM and over 100 nM.
Consider `O=S(=O)(NCCO)c1ccc(-c2[nH]c3ncnc(NC[C@@H]4CCCO4)c3c2-c2ccccc2)cc1` [Example 18, N-(2-Hydroxy-ethyl)-4-{5-phenyl-4-[(tetrahydro-furan-2-ylmethyl)-amino]-7H-pyrrolo[2,3-d]pyrimidin-6-yl}-benzenesulfonamide], for which the Ki in test [1] and in test [3] was under 10 nM throughout. In test [2], this compound showed an IC50 of over 100 nM.
With `O=S(=O)(c1ccc(-c2[nH]c3ncnc(NC[C@@H]4CCCO4)c3c2-c2ccccc2)cc1)N(CCO)CCO` [Example 19, N,N-Bis-(2-hydroxyethyl)-4-{5-phenyl-4-[(tetrahydro-furan-2-ylmethyl)-amino]-7H-pyrrolo[2,3-d]pyrimidin-6-yl}-benzenesulfonamide], the Ki in test [1] and in test [3] was under 10 nM throughout. Further, the concentration for half-maximal inhibition (IC50) in test [2] was over 100 nM.
For the compound `c1ccc(-c2c(-c3ccc(OCCN4CCOCC4)cc3)[nH]c3ncnc(NCC4CCCO4)c23)cc1` (stereo not drawn) [Example 21, {6-[4-(2-Morpholin-4-yl-ethoxy)-phenyl]-5-phenyl-7H-pyrrolo[2,3-d]pyrimidin-4-yl}-(tetrahydro-furan-2-ylmethyl)-amine], the Ki in test [1] and in test [3] was under 10 nM throughout. Also, the IC50 in test [2] is 10 to 100 nM.
Regarding `c1ccc(-c2c(-c3ccc(OCCN4CCCC4)cc3)[nH]c3ncnc(NCC4CCCO4)c23)cc1` (stereo not drawn) [Example 22, {5-Phenyl-6-[4-(2-pyrrolidin-1-yl-ethoxy)-phenyl]-7H-pyrrolo[2,3-d]pyrimidin-4-yl}-(tetrahydrofuran-2-ylmethyl)-amine], the Ki in test [1] and in test [3] was under 10 nM each time. For the same compound, the IC50 in test [2] was in the range of 10 to 100 nM.
Regarding `O=C1CCCN1CCOc1ccc(-c2[nH]c3ncnc(NCC4CCCO4)c3c2-c2ccccc2)cc1` (stereo not drawn) [Example 23, 1-[2-(4-{5-Phenyl-4-[(tetrahydrofuran-2-ylmethyl)-amino]-7H-pyrrolo[2,3-d]pyrimidin-6-yl}-phenoxy)-ethyl]-pyrrolidin-2-one], the Ki in test [1] and in test [3] was under 10 nM in each case. In test [2], this compound gave an IC50 of 10 to 100 nM.
As to `CN1CCCC1CCOc1ccc(-c2[nH]c3ncnc(NCC4CCCO4)c3c2-c2ccccc2)cc1` (stereo not drawn) [Example 24, (6-{4-[2-(1-Methyl-pyrrolidin-2-yl)-ethoxy]-phenyl}-5-phenyl-7H-pyrrolo[2,3-d]pyrimidin-4-yl)-(tetrahydrofuran-2-ylmethyl)-amine], the Ki in test [1] and in test [3] was 10 to 100 nM each time. Further, the IC50 in test [2] was over 100 nM.
Take `N#CCOc1ccc(-c2[nH]c3ncnc(NC[C@@H]4CCCO4)c3c2-c2ccccc2)cc1` [Example 25, (4-{5-Phenyl-4-[(tetrahydrofuran-2-ylmethyl)-amino]-7H-pyrrolo[2,3-d]pyrimidin-6-yl}-phenoxy)-acetonitrile]: the results for the Ki in test [1] and in test [3] were under 10 nM and 10 to 100 nM, respectively. In test [2], the IC50 lay within 10 to 100 nM.
As for `CNC(=O)c1ccc(-c2[nH]c3ncnc(NC[C@@H]4CCCO4)c3c2-c2ccccc2)cc1` [Example 26, N-Methyl-4-{5-phenyl-4-[(tetrahydrofuran-2-ylmethyl)-amino]-7H-pyrrolo[2,3-d]pyrimidin-6-yl}-benzamide], the Ki in test [1] and in test [3] was under 10 nM in each case. In addition, the IC50 in test [2] is 10 to 100 nM.
As to `CN(C)C(=O)c1ccc(-c2[nH]c3ncnc(NCC4CCCO4)c3c2-c2ccccc2)cc1` (stereo not drawn) [Example 27, N,N-Dimethyl-4-{5-phenyl-4-[(tetrahydrofuran-2-ylmethyl)-amino]-7H-pyrrolo[2,3-d]pyrimidin-6-yl}-benzamide], the Ki in test [1] and in test [3] was under 10 nM each time. Further, the IC50 in test [2] lay within 10 to 100 nM.
As to `O=C(c1ccc(-c2[nH]c3ncnc(NCC4CCCO4)c3c2-c2ccccc2)cc1)N1CCOCC1` (stereo not drawn) [Example 28, Morpholin-4-yl-(4-{5-phenyl-4-[(tetrahydrofuran-2-ylmethyl)-amino]-7H-pyrrolo[2,3-d]pyrimidin-6-yl}-phenyl)-methanone], the values for the Ki in test [1] and in test [3] were under 10 nM and over 100 nM, respectively. The compound further came in with an IC50 in test [2] of 10 to 100 nM.
On to `O=C(NC1CC1)c1ccc(-c2[nH]c3ncnc(NCC4CCCO4)c3c2-c2ccccc2)cc1` (stereo not drawn) [Example 29, N-Cyclopropyl-4-{5-phenyl-4-[(tetrahydrofuran-2-ylmethyl)-amino]-7H-pyrrolo[2,3-d]pyrimidin-6-yl}-benzamide], for which the Ki in test [1] and in test [3] was under 10 nM throughout. In test [2], this compound returned an IC50 of 10 to 100 nM.
In the case of `COCCNC(=O)c1ccc(-c2[nH]c3ncnc(NCC4CCCO4)c3c2-c2ccccc2)cc1` (stereo not drawn) [Example 30, N-(2-Methoxyethyl)-4-{5-phenyl-4-[(tetrahydrofuran-2-ylmethyl)-amino]-7H-pyrrolo[2,3-d]pyrimidin-6-yl}-benzamide], the Ki in test [1] and in test [3] was under 10 nM in each case. In addition, in test [2], the IC50 was in the range of 10 to 100 nM.
Consider `O=C(NCCN1CCOCC1)c1ccc(-c2[nH]c3ncnc(NCC4CCCO4)c3c2-c2ccccc2)cc1` (stereo not drawn) [Example 31, N-(2-Morpholin-4-yl-ethyl)-4-{5-phenyl-4-[(tetrahydrofuran-2-ylmethyl)-amino]-7H-pyrrolo[2,3-d]pyrimidin-6-yl}-benzamide], for which the inhibition constant Ki in test [1] and in test [3] was under 10 nM in each case. In test [2], the IC50 is over 100 nM.
